Data from patent US12435061B2 (priority 2020, dated 2025).
“And” between values parts separate entries of the source, which are not always exact repeats. Identical values can stand only once. Counter-ions that a name gives are not always drawn. Like-named read-outs stand apart in the source and are kept apart here.

Biological target: hTRPV3 (Homo sapiens (Human), UniProt Q8NET8)
Assay: Whole-cell patch clamp, hTRPV3 Phase 1 / Phase 2 currents
Assay type: cell-based
Source text: Whole-cell patch clamp experiments permit the detection of currents through the TRPV3 channel in the cell line described above. A glass electrode is brought into contact with a single cell and the membrane is then ruptured, permitting control of the voltage of the cell membrane and measurement of currents flowing across the membrane using the amplifier attached to the electrode. A perfusion system permits control of the extracellular solution, including the addition of blockers and activators of the current. The current can be activated by heating this solution to 28° C. or warmer or by addition of 20 μM 2-APB to the solution.
TRPV3 cells were induced 20-48 hours, removed from growth plates, and replated at low density (to attain good single-cell physical separation) on glass coverslips for measurement. In some cases, cells were grown in low density overnight on glass coverslips. Patch clamp recordings were made in the whole-cell mode with a holding potential of −40 mV. Every 5 seconds, a voltage ramp was applied from −120 to +100 mV, 400 ms in duration. Currents elicited were quantified at −80 mV and +80 mV. […] External solution was Ringer's solution described above.
P1 refers to the Phase 1 current for human (h) TRPV3, and P2 refers to the Phase 2 current for human (h) TRPV3.
In Tables 3 and 4, Phase 1 refers to Phase 1 current for human (h) TRPV3 or rat (r) TRPV3, and Phase 2 refers to Phase 2 current for human (h) TRPV3 or rat (r) TRPV3. The hTRPV3 and rTRPV3 assays were performed as described herein. hERG refers to the inhibition the human ERG (hERG) channel. NaV1.5, refers to the pore forming aL-subunit of the voltage-dependent cardiac Na(+) channel and is an integral membrane protein involved in the initiation and conduction of action potentials. hTRPV3 HAMA IC50 refers to the IC50 of TRPV3 cells stably expressed in TRex-293 cells. Solubility Ringer refers to the compounds' solubility in Ringer's solution. LM T1/2 refers to liver microsome half-lives in either rat or human liver microsomes. FLIPR IC50 refers to the IC50 of the test compounds against recombinant hTRPV3 cells.

[1] = Phase 1 current, inward, whole-cell patch clamp, read-out: hTRPV3 Patch P1 Inwd
[2] = Phase 2 current, inward, whole-cell patch clamp, read-out: hTRPV3 Patch P2 Inwd
[3] = Phase 1 current, read-out: hTRPV3 (nM) (Phase 1)
[4] = Phase 2 current, read-out: hTRPV3 (nM) (Phase 2)

hTRPV3, sequence (Q8NET8 whole entry): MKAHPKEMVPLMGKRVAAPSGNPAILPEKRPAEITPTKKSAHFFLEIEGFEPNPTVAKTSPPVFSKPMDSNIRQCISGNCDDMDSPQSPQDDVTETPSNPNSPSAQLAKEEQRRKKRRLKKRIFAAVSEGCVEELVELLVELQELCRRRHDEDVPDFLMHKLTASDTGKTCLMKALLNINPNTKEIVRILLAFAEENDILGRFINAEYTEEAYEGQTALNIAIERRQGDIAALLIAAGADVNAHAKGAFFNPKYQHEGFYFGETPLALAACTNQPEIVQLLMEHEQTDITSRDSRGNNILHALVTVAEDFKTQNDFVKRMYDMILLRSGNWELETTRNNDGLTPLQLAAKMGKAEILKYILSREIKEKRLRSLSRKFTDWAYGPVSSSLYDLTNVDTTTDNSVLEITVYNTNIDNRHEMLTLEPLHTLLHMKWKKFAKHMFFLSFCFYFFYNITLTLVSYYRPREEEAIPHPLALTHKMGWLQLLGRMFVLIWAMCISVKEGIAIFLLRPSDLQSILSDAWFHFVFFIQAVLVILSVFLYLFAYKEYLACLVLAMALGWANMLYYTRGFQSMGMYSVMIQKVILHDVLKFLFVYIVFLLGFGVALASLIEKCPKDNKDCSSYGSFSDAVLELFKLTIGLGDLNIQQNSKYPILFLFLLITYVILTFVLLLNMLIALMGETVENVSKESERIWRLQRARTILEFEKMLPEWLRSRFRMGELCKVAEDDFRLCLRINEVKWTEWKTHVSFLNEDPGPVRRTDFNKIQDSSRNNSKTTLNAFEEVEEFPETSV

With CC(C)(C)OC(=O)c1ccccc1N1CC[C@H](Oc2ccc(C(F)(F)F)cn2)C1 [Compound 1-54, (S)-tert-butyl 2-(3-(5-(trifluoromethyl)pyridin-2-yloxy)pyrrolidin-1-yl)benzoate] the IC50 [1] was > 1000 nM.

With CC(C)(C)OC(=O)c1ccccc1N1CC[C@@H](Oc2ccc(C(F)(F)F)cn2)C1 [Compound 1-55, (R)-tert-butyl 2-(3-(5-(trifluoromethyl)pyridin-2-yloxy)pyrrolidin-1-yl)benzoate] the IC50 [1] was > 1000 nM and the IC50 [2] was > 1000 nM.

With CN(C)Cc1ccccc1N1CC[C@@H](Oc2ccc(C(F)(F)F)cn2)C1 [Compound 1-60, (R)—N,N-dimethyl-1-(2-(3-(5-(trifluoromethyl)pyridin-2-yloxy)pyrrolidin-1-yl)phenyl) methanamine hydrochloride] the IC50 [1] was > 1000 nM and the IC50 [2] was > 1000 nM.

With CN(C)Cc1ccccc1N1CC[C@H](Oc2ccc(C(F)(F)F)cn2)C1 [Compound 1-61, (S)—N,N-dimethyl-1-(2-(3-(5-(trifluoromethyl)pyridin-2-yloxy)pyrrolidin-1-yl)phenyl) methanamine hydrochloride] the IC50 [1] was > 1000 nM.

In the case of N#Cc1ccc(-c2ccccc2)cc1N1CC[C@H](Oc2ccc(C(F)(F)F)cn2)C1 [Compound 1-62, (S)-3-(3-(5-(trifluoromethyl)pyridin-2-yloxy)pyrrolidin-1-yl)biphenyl-4-carbonitrile], the IC50 [1] is reported as > 1000 nM and the IC50 [2] is reported as > 1000 nM.

For NC(=O)c1ccc(-c2ccccc2)cc1N1CC[C@H](Oc2ccc(C(F)(F)F)cn2)C1 [Compound 1-63, (S)-3-(3-(5-(trifluoromethyl)pyridin-2-yloxy)pyrrolidin-1-yl)biphenyl-4-carboxamide], the IC50 [1] was > 1000 nM and the IC50 [2] was > 1000 nM.

With CC(C)Oc1cc(-c2ccccc2)ccc1N1CC[C@H](Oc2ccc(C(F)(F)F)cn2)C1 [Compound 1-77, (S)-2-(1-(3-isopropoxybiphenyl-4-yl)pyrrolidin-3-yloxy)-5-(trifluoromethyl)pyridine] the IC50 [1] was > 1000 nM, the IC50 [3] was > 3200 nM and the IC50 [2] was > 1000 nM. The IC50 [4] was 1470 nM.

In the case of NC(=O)c1cc(-c2ccccc2)ccc1N1CC[C@@H](Oc2ccccn2)C1 [Compound 1-78, (R)-4-(3-(pyridin-2-yloxy)pyrrolidin-1-yl)biphenyl-3-carboxamide], the IC50 [1] is reported as 100 to 1000 nM, the IC50 [3] is reported as ~835 nM and the IC50 [2] is reported as 100 to 1000 nM. The IC50 [4] was 402 nM.

NC(=O)c1cc(-c2ccncc2)ccc1N1CC[C@@H](Oc2ccccn2)C1 [Compound 1-79, (R)-2-(3-(pyridin-2-yloxy)pyrrolidin-1-yl)-5-(pyridin-4-yl)benzamide] was tested, and the IC50 [1] was > 1000 nM, the IC50 [3] was > 3200 nM and the IC50 [2] was > 1000 nM. The IC50 [4] was > 3200 nM.

For NC(=O)c1cc(-c2ccncc2)ccc1N1CC[C@@H](Oc2ncccc2Cl)C1 [Compound 1-82, (R)-2-(3-(3-chloropyridin-2-yloxy)pyrrolidin-1-yl)-5-(pyridin-4-yl)benzamide hydrochloride], the IC50 [1] was > 1000 nM, the IC50 [3] was 3600 nM and the IC50 [2] was > 1000 nM. For the same molecule, the IC50 [4] was 1930 nM.

Work on NC(=O)c1cc(C(F)(F)F)ccc1N1CC[C@@H](Oc2ccc(C(F)(F)F)cn2)C1 [Compound 1-84, (R)-5-(trifluoromethyl)-2-(3-(5-(trifluoromethyl)pyridin-2-yloxy)pyrrolidin-1-yl)benzamide] yielded an IC50 [1] of 100 to 1000 nM and an IC50 [3] of 631 nM.

For NC(=O)c1cc(-c2ccccn2)ccc1N1CC[C@@H](Oc2ncccc2Cl)C1 [Compound 1-85, (R)-2-(3-(3-chloropyridin-2-yloxy)pyrrolidin-1-yl)-5-(pyridin-2-yl)benzamide], the IC50 [1] was > 1000 nM and the IC50 [3] was 3480 nM.

NC(=O)c1cc(-c2ccccc2)ccc1N1CC[C@@H](Oc2ccc3cc(Cl)ccc3n2)C1 [Compound 1-86, (R)-4-(3-(6-chloroquinolin-2-yloxy)pyrrolidin-1-yl)biphenyl-3-carboxamide] was tested, and the IC50 [2] was > 1000 nM and the IC50 [4] was > 3200 nM.

NC(=O)c1cc(-c2cccnc2)ccc1N1CC[C@@H](Oc2ccccn2)C1 [Compound 1-87, hydrochloride] was tested, and the IC50 [1] was > 1000 nM.

With NC(=O)c1cc(-c2ccccn2)ccc1N1CC[C@@H](Oc2ccccn2)C1 [Compound 1-88, (R)-5-(pyridin-2-yl)-2-(3-(pyridin-2-yloxy)pyrrolidin-1-yl)benzamide] the IC50 [1] was > 1000 nM, the IC50 [3] was > 3200 nM and the IC50 [2] was > 1000 nM. The IC50 [4] was > 3200 nM.

For Oc1cc(-c2ccccc2)ccc1N1CC[C@@H](Oc2ccc(C(F)(F)F)cn2)C1 [Compound 1-89, (R)-4-(3-(5-(trifluoromethyl)pyridin-2-yloxy)pyrrolidin-1-yl)biphenyl-3-ol], the IC50 [1] was > 1000 nM, the IC50 [3] was > 3200 nM and the IC50 [2] was > 1000 nM. The IC50 [4] was > 3200 nM.

In the case of NC(=O)c1cc(-c2ccccc2)cnc1N1CC[C@@H](Oc2ncccc2Cl)C1 [Compound 1-90, (R)-2-(3-(3-chloropyridin-2-yloxy)pyrrolidin-1-yl)-5-phenylnicotinamide], the IC50 [1] is reported as > 1000 nM, the IC50 [3] is reported as ~3000 nM and the IC50 [2] is reported as > 1000 nM. It also gave an IC50 [4] of 1600 nM.

O=C(O)c1cc(-c2ccccc2)cnc1N1CC[C@@H](Oc2ccc(C(F)(F)F)cn2)C1 [Compound 1-91] was tested, and the “hTRPV3 (nM) (Phase 1)” value (Phase 1 current) was “Agonist (Phase 1)”.

In the case of NC(=O)c1cc(-c2ccccc2)cnc1N1CC[C@@H](Oc2ccc(C(F)(F)F)cn2)C1 [Compound 1-92, (R)-5-phenyl-2-(3-(5-(trifluoromethyl)pyridin-2-yloxy)pyrrolidin-1-yl)nicotinamide], the “hTRPV3 (nM) (Phase 1)” value (Phase 1 current) is reported as “Incomplete Block (Phase 1) Incomplete Block (Phase 2)” and the “hTRPV3 (nM) (Phase 2)” value (Phase 2 current) is reported as “Incomplete Block (Phase 1) Incomplete Block (Phase 2)”.

In the case of Nc1cc(-c2ccccc2)ccc1N1CC[C@@H](Oc2ccc(C(F)(F)F)cn2)C1 [Compound 1-93, (R)-4-(3-(5-(trifluoromethyl)pyridin-2-yloxy)pyrrolidin-1-yl)biphenyl-3-amine], the “hTRPV3 (nM) (Phase 2)” value (Phase 2 current) is reported as “Incomplete Block” and the IC50 (hTRPV3 (nM) (Phase 2), Phase 2 current) is reported as 494 nM and < 320 nM.

With O=C1C(Oc2ccc3ccccc3n2)CCN1c1ccc(-c2ccccc2)cc1 (stereo not shown) [Compound 1-95, 1-(biphenyl-4-yl)-3-(quinolin-2-yloxy)pyrrolidin-2-one] the IC50 [1] was > 1000 nM and the IC50 [3] was > 3200 nM.

With N#Cc1nc(-c2ccccc2)ccc1N1CC[C@@H](Oc2ccc(C(F)(F)F)cn2)C1 [Compound 1-97] the IC50 [2] was > 1000 nM and the IC50 [4] was 2930 nM.

In the case of NC(=O)c1nc(-c2ccccc2)ccc1N1CC[C@@H](Oc2ccc(C(F)(F)F)cn2)C1 [Compound 1-98, (R)-6-phenyl-3-(3-(5-(trifluoromethyl)pyridin-2-yloxy)pyrrolidin-1-yl)picolinamide], the IC50 [1] is reported as 100 to 1000 nM and the IC50 [3] is reported as 479 nM.

NC(=O)c1cc(-c2ccccc2)ncc1N1CC[C@@H](Oc2ccc(C(F)(F)F)cn2)C1 [Compound 1-99, (R)-2-phenyl-5-(3-(5-(trifluoromethyl)pyridin-2-yloxy)pyrrolidin-1-yl)isonicotinamide] was tested, and the IC50 [1] was 100 to 1000 nM, the IC50 [3] was ~787 nM and the IC50 [2] was 100 to 1000 nM. For the same molecule, the IC50 [4] was 349 nM.

For NC(=O)c1cc(C2=NCCN2)ccc1N1CC[C@@H](Oc2ccc(C(F)(F)F)cn2)C1 [Compound 1-100, (R)-5-(4,5-dihydro-1H-imidazol-2-yl)-2-(3-(5-(trifluoromethyl)pyridin-2-yloxy)pyrrolidin-1-yl)benzamide], the IC50 (hTRPV3 Patch P1 Inwd (nM)) was > 1000 nM, the IC50 (hTRPV3 Patch P2 Inwd (nM)) was > 1000 nM and the IC50 (read-out: hTRPV3 (nM) (Phase 1)) was > 3200 nM. For the same molecule, the IC50 (read-out: hTRPV3 (nM) (Phase 2)) was > 3200 nM.

In the case of O=C1C(Oc2ccc3ccccc3n2)CCN1c1cccc2ccccc12 (stereo not shown) [Compound 1-101], the IC50 [1] is reported as > 1000 nM, the IC50 [3] is reported as > 1000 nM and the IC50 [2] is reported as > 1000 nM. The IC50 [4] was > 1000 nM.

For N#Cc1ccccc1N1CCC(Oc2ccc3ccccc3n2)C1=O (stereo not shown) [Compound 1-103, 2-(2-oxo-3-(quinolin-2-yloxy)pyrrolidin-1-yl)benzonitrile], the IC50 [1] was > 1000 nM and the IC50 [3] was > 3200 nM.

O=C1C(Oc2ccc3ccccc3n2)CCN1c1ccccc1 (stereo not shown) [Compound 1-104, 1-phenyl-3-(quinolin-2-yloxy)pyrrolidin-2-one] was tested, and the IC50 [1] was > 1000 nM and the IC50 [3] was > 3200 nM.

NC(=O)c1ccccc1N1CCC(Oc2ccc3ccccc3n2)C1=O (stereo not shown) [Compound 1-105, 2-(2-oxo-3-(quinolin-2-yloxy)pyrrolidin-1-yl)benzamide] was tested, and the IC50 [1] was > 1000 nM and the IC50 [3] was > 3200 nM.

With O=C1C(Oc2ccc3ccccc3n2)CCN1c1ccccc1Cl (stereo not shown) [Compound 1-106, 1-(2-chlorophenyl)-3-(quinolin-2-yloxy)pyrrolidin-2-one] the IC50 [1] was > 1000 nM, the IC50 [3] was > 3200 nM and the IC50 [2] was > 1000 nM. For the same molecule, the IC50 [4] was > 3200 nM.

In the case of NC(=O)c1cc(-c2ncc[nH]2)ccc1N1CC[C@@H](Oc2ccc(C(F)(F)F)cn2)C1 [Compound 1-107, (R)-5-(1H-imidazol-2-yl)-2-(3-(5-(trifluoromethyl)pyridin-2-yloxy)pyrrolidin-1-yl)benzamide], the IC50 [1] is reported as > 1000 nM, the IC50 [3] is reported as > 1000 nM and the IC50 [2] is reported as > 1000 nM. The IC50 [4] was > 1000 nM.
